{"source": "patent US11883526B2", "about": "(priority 2019, dated 2024)", "key": {"subjects with TRD [1]": {"system": "subjects with TRD", "details": "human, in vivo, other: intranasal", "procedure": "(§1) The Clinician Administered Dissociative States Scale (CADSS) was measured prior to the start of each dose, at 40 minutes, and 1.5 hours postdose."}, "[2]": {"from_the_text": "This example provides an LC-MS/MS method for the determination of ketamine and norketamine in sodium heparin human plasma using ketamine-d4 and norketamine-d4 as the respective internal standards (IS)."}, "[3]": {"system": "subjects with MDD at imminent risk for suicide", "details": "84 mg", "procedure": "The CADSS was measured prior to the start of each dose, at 40 minutes, 2 hours, and 4 hours postdose."}, "adult subjects with TRD [4]": {"system": "adult subjects with TRD", "details": "double-blind phase", "procedure": "The CADSS is an instrument for the measurement of present-state dissociative symptoms, and was administered to assess treatment-emergent dissociative symptoms. The CADSS consists of 23 subjective items, divided into 3 components: Depersonalization (Items 3 to 7, 20, and 23), derealization (Items 1, 2, 8 to 13, 16 to 19, and 21) and amnesia (Items 14, 15, and 22). Participant's responses were coded on a 5-point scale (0=not at all through to 4=extremely).\nas §1"}, "[5]": {"details": "14-day study, 54 mg/day intranasal", "method": "This study includes a single dose and 14-day repeated dose neurotoxicity studies with intranasally administered esketamine in female rats 12 to 14 weeks of age. These studies were conducted to investigate whether single or repeated intranasal administrations of esketamine induced neurodegenerative changes in the rat brain. The study results were used to estimate an esketamine exposure-based safety margin compared with the maximum dose of esketamine administered intranasally to depressed adult patients in clinical trials.\nEach group of main study animals consisted of 12 female rats. Four satellite animals were added to the esketamine HCl-dosed groups of main study animals for TK purposes. The plasma exposure to esketamine was measured in these animals on the first and the last day of dosing at various time points up to and including 24 hours after the first instillation."}, "subjects with TRD [6]": {"system": "subjects with TRD", "details": "human, in vivo, other: intranasal", "method": "FIGS. 53 and 54 present means for blood pressure over time by treatment group in the maintenance phase.\nTransient blood pressure increases peaked for the esketamine group at approximately 40 minutes post dose and returned closer to predose levels by 1.5 hours post dose.", "remark": "listed apart in the source"}, "[7]": {"system": "subjects with MDD at imminent risk for suicide", "type": "in vivo, human", "details": "84 mg", "method": "Transient blood pressure increases peaked for the esketamine group at approximately 40 minutes post dose with the maximum mean increases (across all dosing days) in systolic BP being 8.7 in the placebo group and 16.7 in the esketamine 84 mg group. The maximum mean increases (across all dosing days) in diastolic BP were 7.6 in the placebo group and 11.9 in the esketamine 84 mg group. […] See, FIGS. 46 and 47."}, "subjects with TRD [8]": {"system": "subjects with TRD", "details": "human, in vivo, other: intranasal", "remark": "listed apart in the source", "procedure": "as §1"}, "adult subjects with TRD [9]": {"system": "adult subjects with TRD", "details": "double-blind phase", "remark": "listed apart in the source", "procedure": "The MOAA/S was used to measure treatment-emergent sedation, with correlation to levels of sedation defined by the American Society of Anesthesiologists (ASA) continuum. The MOAA/S scores range from 0=no response to painful stimulus (corresponds to ASA continuum for general anesthesia) to 5=readily responds to name spoken in normal tone (awake; corresponds to ASA continuum for minimal sedation).\nOn each intranasal dosing day, the MOAA/S was performed every 15 minutes from pre-dose to t=+1.5 hours post-dose. If the score was ≤3 at any time during the 1.5 hours post-dose interval, the MOAA/S was performed every 5 minutes until a score of 4 is reached (at which point a frequency of every 15 minutes can be resumed until t=+1.5 hours post dose). […] For subjects with a score of 4, the assessment was repeated every 15 minutes. […]\nThe Modified Observer's Assessment of Alertness/Sedation (MOAA/S) was used to measure treatment-emergent sedation with correlation to levels of sedation defined by the American Society of Anesthesiologists (ASA) continuum. The MOAA/S scores ranged from 0 (No response to painful stimulus; corresponds to ASA continuum for general anesthesia) to 5 (Readily responds to name spoken in normal tone [awake]; corresponding to ASA continuum for minimal sedation)."}}}
{"smiles": "CN[C@]1(c2ccccc2Cl)CCCCC1=O", "note": "[esketamine, (S)-2-(2-chlorophenyl)-2-(methylamino)cyclohexanone]", "values": [{"measurement": "dissociative/perceptual change symptoms (CADSS) resolved by", "setting": "subjects with TRD [1]", "value": "≤ 1.5", "unit": "hours post dose"}, {"measurement": "QC sample freeze/thaw stability", "setting": "[2]; freeze (−20° C.)/thaw (room temperature)", "value": "3 freeze (−20° C.)/thaw (room temperature) cycles"}, {"measurement": "QC sample long-term storage stability", "setting": "[2]; human plasma QC sample at −20° C.", "value": 707, "unit": "days at −20 °C"}, {"measurement": "QC sample bench-top stability", "setting": "[2]; human plasma QC sample, room temperature", "value": 18, "unit": "hours at room temperature"}, {"measurement": "dissociative and perceptual change symptoms (CADSS) resolved by", "setting": "[3]", "value": "≤ 2", "unit": "hours post dose"}, {"measurement": "dissociative and perceptual change symptoms (CADSS) resolved by", "setting": "adult subjects with TRD [4]", "value": "≤ 1.5", "unit": "hours postdose"}, {"measurement": "AUC-based safety margin compared with the maximum 84 mg clinical dose", "setting": "[5]", "value": "~11", "unit": "fold"}, {"measurement": "Cmax-based safety margin compared with the maximum 84 mg clinical dose", "setting": "[5]", "value": "approximately 17 fold"}, {"measurement": "blood pressure returned closer to predose levels by", "setting": "subjects with TRD [6]", "value": "≤ 1.5", "unit": "hours post dose"}, {"measurement": "time of peak of transient blood pressure increase post dose", "setting": "subjects with TRD [6]", "value": "approximately 40 minutes"}, {"measurement": "blood pressure returning to normal range by", "setting": "[7]", "value": "≤ 2", "unit": "hours post dose"}, {"measurement": "maximum mean increase in diastolic BP", "setting": "[7]; across all dosing days", "value": 11.9}, {"measurement": "maximum mean increase in systolic BP", "setting": "[7]; across all dosing days", "value": 16.7}, {"measurement": "dissociative and perceptual change symptoms (CADSS) resolved by", "setting": "subjects with TRD [8]", "value": "≤ 1.5", "unit": "hours post dose"}, {"measurement": "sedation (MOAA/S) resolved by", "setting": "adult subjects with TRD [9]", "value": "≤ 1.5", "unit": "hours postdose"}]}
